The source of these data is ChEMBL document CHEMBL1155376, “Structure-activity relationships of norepinephrine reuptake inhibitors with benzothiadiazine dioxide or dihydrosulfostyril cores” (Bioorg Med Chem Lett, 2010).

Data set [1] concerns the target T1, Sodium-dependent serotonin transporter (Homo sapiens, UniProt P31645). As to the kind of experiment: Inhibition of serotonin uptake at human SERT expressed in human JAR.
Target sequence in this assay (P31645 whole entry): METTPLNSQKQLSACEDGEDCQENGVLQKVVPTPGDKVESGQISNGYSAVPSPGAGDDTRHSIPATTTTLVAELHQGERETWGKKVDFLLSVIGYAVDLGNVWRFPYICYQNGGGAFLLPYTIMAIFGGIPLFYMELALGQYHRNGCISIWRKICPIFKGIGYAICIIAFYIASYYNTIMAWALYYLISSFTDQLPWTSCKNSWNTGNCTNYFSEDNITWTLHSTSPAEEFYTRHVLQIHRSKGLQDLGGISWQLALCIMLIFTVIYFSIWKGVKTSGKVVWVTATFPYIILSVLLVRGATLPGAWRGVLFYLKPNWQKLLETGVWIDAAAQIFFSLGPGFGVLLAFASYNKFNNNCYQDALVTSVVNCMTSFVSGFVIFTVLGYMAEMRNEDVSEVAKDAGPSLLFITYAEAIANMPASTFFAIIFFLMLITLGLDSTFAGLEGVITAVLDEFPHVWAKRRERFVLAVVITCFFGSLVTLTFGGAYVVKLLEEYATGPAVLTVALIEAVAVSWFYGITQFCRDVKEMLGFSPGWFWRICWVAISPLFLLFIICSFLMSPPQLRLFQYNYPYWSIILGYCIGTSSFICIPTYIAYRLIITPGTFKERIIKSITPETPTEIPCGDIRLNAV
Data set [2] deals with T2, Sodium-dependent dopamine transporter (Homo sapiens, UniProt Q01959). In words: Displacement of [3H]WIN-35428 from human recombinant DAT expressed in CHO cells at 1 uM. The class given is cell-based.
For data set [3], the target named is Sodium-dependent noradrenaline transporter (Homo sapiens, UniProt P23975).
Description: Inhibition of norepinephrine uptake at human NET expressed in MDCK-Net6 cells
Data set [4] deals with T1, Sodium-dependent serotonin transporter. As to the kind of experiment: Inhibition of serotonin uptake at human SERT expressed in human JAR at 1 uM.
Target sequence in this assay (P31645 whole entry, looked up): as the sequence (P31645 whole entry) above
Data set [5] in a line: Half life in rat liver microsomes at 1 uM.
Data set [6] concerns the target T1, Sodium-dependent serotonin transporter. As to the kind of experiment: Inhibition of serotonin uptake at human SERT expressed in human JAR at 6 uM.
Target sequence in this assay (P31645 whole entry, looked up): as the sequence (P31645 whole entry) above
Data set [7] relates to Rattus norvegicus. As to the kind of experiment: Thermoregulatory activity in OVX-induced thermoregulatory dysfunction Sprague-Dawley rat model assessed as maximum reduction in tail-skin temperature at 3 mg/kg, po by implanted temperature and physical activity transmitter. Format: functional.
Data set [8] concerns Rattus norvegicus. As to the kind of experiment: Thermoregulatory activity in OVX-induced thermoregulatory dysfunction Sprague-Dawley rat model assessed as mean reduction in tail-skin temperature at 3 mg/kg, po by implanted temperature and physical activity transmitter. The class given is functional.
Data set [9] deals with T2, Sodium-dependent dopamine transporter. In words: Displacement of [3H]WIN-35428 from human recombinant DAT expressed in CHO cells at 10 uM. The class given is cell-based. A general note: Loss of bound radioactivity is the signal in a displacement assay; it reports binding, not function.
Data set [10] shares this target. As to the kind of experiment: biochemical.
In data set [11] the test system is Rattus norvegicus. In words: Duration of thermoregulatory activity in OVX-induced thermoregulatory dysfunction Sprague-Dawley rat model at 3 mg/kg, po by implanted temperature and physical activity transmitter. The class given is functional.

A value given as a limit tells only on which side of the number the result lay.

Chain of Sodium-dependent noradrenaline transporter (P23975 whole entry): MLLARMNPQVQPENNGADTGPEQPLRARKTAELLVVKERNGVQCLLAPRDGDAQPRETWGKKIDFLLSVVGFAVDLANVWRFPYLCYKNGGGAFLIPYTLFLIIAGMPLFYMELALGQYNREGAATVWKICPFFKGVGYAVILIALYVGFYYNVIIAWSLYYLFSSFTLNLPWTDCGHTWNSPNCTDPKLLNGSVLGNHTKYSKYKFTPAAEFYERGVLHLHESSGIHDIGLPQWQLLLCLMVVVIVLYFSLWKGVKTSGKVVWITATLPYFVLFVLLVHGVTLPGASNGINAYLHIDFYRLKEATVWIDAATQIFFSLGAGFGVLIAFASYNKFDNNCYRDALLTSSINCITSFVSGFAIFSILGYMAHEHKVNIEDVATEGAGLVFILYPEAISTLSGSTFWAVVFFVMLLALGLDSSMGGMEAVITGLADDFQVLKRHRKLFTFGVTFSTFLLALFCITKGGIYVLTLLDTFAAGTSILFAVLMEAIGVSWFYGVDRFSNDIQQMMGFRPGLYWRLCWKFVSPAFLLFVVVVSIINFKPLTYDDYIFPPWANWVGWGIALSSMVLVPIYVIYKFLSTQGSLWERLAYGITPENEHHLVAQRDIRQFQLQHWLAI
T2 sequence (Q01959 whole entry): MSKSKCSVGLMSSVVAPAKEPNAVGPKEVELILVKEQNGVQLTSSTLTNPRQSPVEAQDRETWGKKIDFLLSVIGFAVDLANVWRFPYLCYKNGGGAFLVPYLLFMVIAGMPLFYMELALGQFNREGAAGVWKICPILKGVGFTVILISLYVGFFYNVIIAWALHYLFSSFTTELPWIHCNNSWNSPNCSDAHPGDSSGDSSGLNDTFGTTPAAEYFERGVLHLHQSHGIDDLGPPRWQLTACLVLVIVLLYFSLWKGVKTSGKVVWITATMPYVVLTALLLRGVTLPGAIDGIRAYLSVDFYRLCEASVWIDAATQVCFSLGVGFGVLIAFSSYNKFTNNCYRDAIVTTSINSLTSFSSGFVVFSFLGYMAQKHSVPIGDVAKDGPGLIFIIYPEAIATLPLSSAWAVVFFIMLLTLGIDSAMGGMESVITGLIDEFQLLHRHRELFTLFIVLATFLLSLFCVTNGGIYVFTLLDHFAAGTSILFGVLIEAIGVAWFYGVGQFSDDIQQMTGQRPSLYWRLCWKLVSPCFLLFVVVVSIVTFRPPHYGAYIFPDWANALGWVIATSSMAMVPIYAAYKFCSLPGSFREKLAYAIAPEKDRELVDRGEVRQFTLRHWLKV

As for `CNCCCN1Cc2cc(F)ccc2N(c2ccccc2F)S1(=O)=O`, half-maximal inhibition in data set [1] (IC50) was put at 1500 nM. Also, the inhibition in data set [2] was 2.5%.
`CNCCCCN1Cc2cc(F)ccc2N(c2ccccc2F)S1(=O)=O` showed a concentration for half-maximal inhibition (IC50) in [1] of 110 nM. In addition, in data set [2], the inhibition turned out to be 25%.
For `CNCCCCN1Cc2ccccc2N(c2ccccc2F)S1(=O)=O`, the 50% inhibitory concentration (IC50) in [1] worked out at 2000 nM. Besides, the inhibition in data set [2] was found to be 18%.
On the same counts, the results for `CNCCN1Cc2cc(F)ccc2N(c2ccccc2F)S1(=O)=O` are 13300 nM and -5%.
`CNCCCN1Cc2ccccc2N(c2ccc(C)cc2)S1(=O)=O`: half-maximal inhibition in [3] (IC50) required 140 nM.
The compound `CNCCCN1Cc2ccccc2N(c2ccccc2)S1(=O)=O` registered an IC50 in data set [1] of 6000 nM. In data set [2], the inhibition stood at 17%.
Take `CNCCCN1Cc2ccccc2N(c2ccccc2F)S1(=O)=O`: half-maximal inhibition in data set [1] (IC50) was put at 5500 nM. Also, the inhibition in data set [2] was -7%.
On to `CNCCN1Cc2ccccc2N(c2ccccc2F)S1(=O)=O`, for which the inhibition in data set [2] and in data set [4] was 24% throughout.
On to `CNCCCC1Cc2cc(F)ccc2N(c2c(F)cccc2F)S1(=O)=O` (single isomer, unassigned) [listing 1 of 2 here], for which the half-life at 1 µM in data set [5] is greater than 30 min. In data set [3], this compound came in with an IC50 of 25 nM.
For the compound `CNCCCC1Cc2cc(F)ccc2N(c2c(F)cccc2F)S1(=O)=O` (single isomer, unassigned) [listing 2 of 2 here], in [6], the inhibition is 82%.
The compound `CNCCCC1Cc2ccccc2N(c2c(F)cccc2F)S1(=O)=O` (single isomer, unassigned; 16e) [listing 1 of 2 here] yielded a half-life at 1 µM in data set [5] of 3 min. Further, the IC50 in data set [3] stood at 52 nM.
Turning to `CNCCCC1Cc2ccccc2N(c2c(F)cccc2F)S1(=O)=O` (single isomer, unassigned; 16e) [listing 2 of 2 here], the inhibition in data set [6] came out at 40%.
As for `CNCCCC1Cc2ccccc2N(c2c(F)cccc2F)S1(=O)=O.Cl` (single isomer, unassigned; 16f), the Activity in data set [7] and in [8] was 0 °C throughout. In data set [5], this compound gave a half-life at 1 µM of 4 min. Further, the results for the IC50 in data set [1] and in data set [3] were 8000 nM and 5 nM, respectively.
With `CNCCCC1Cc2ccccc2N(c2c(F)cccc2F)S1(=O)=O` (single isomer, unassigned; 16f), in data set [9], the inhibition was determined as 3.8%.
On to `CNCCCC1Cc2ccccc2N(c2ccccc2)S1(=O)=O` (single isomer, unassigned; enantiomer I), for which, in data set [5], the half-life at 1 µM was determined as 3 min. Besides, the concentration for half-maximal inhibition (IC50) was determined as 6900 nM in data set [1] and 88 nM in [3].
On to `CNCCCC1Cc2ccccc2N(c2ccccc2F)S1(=O)=O` (single isomer, unassigned; enantiomer I) [listing 1 of 2 here], for which the half-life at 1 µM in data set [5] is less than 1 min. The compound also had an IC50 in data set [3] of 55 nM.
For `CNCCCC1Cc2cc(F)ccc2N(c2ccccc2F)S1(=O)=O` (single isomer, unassigned; enantiomer I), in data set [5], the half-life at 1 µM was greater than 30 min. For the same compound, the IC50 in data set [1] amounted to 720 nM; in data set [3], 93 nM.
As for `CNCCCC1Cc2cc(F)ccc2N(c2ccccc2)S1(=O)=O` (single isomer, unassigned; enantiomer I), the inhibition in data set [6] came out at 85%.
On to `CNCCCC1Cc2ccccc2N(c2ccccc2F)S1(=O)=O` (single isomer, unassigned; enantiomer I) [listing 2 of 2 here], for which the inhibition in [6] came to 11%; in [9] it was 21%.
Turning to `CNCCCC1Cc2ccccc2N(c2ccccc2)S1(=O)=O.Cl` (single isomer, unassigned; enantiomer II), the results for the IC50 in [10], in data set [1] and in data set [3] were 6600 nM, 2500 nM and 12 nM, respectively. Besides, the half-life at 1 µM in data set [5] is less than 1 min.
In the case of `CNCCCC1Cc2ccccc2N(c2ccccc2F)S1(=O)=O.Cl` (single isomer, unassigned; enantiomer II), in [5], the half-life at 1 µM was less than 1 min. Moreover, the IC50 in data set [3] stood at 3 nM.
For the compound `CNCCCC1Cc2cc(F)ccc2N(c2ccccc2)S1(=O)=O` (single isomer, unassigned; enantiomer II), the half-maximal inhibitory concentration (IC50) in [10] was 4000 nM; in data set [1] it was 240 nM.
For `CNCCCC1Cc2cc(F)ccc2N(c2ccccc2F)S1(=O)=O.Cl` (single isomer, unassigned; enantiomer II), the Activity in data set [7] stood at 2.4 °C; in data set [11] it was 6 h; in data set [8] it was 1.5 °C. In data set [5], this compound yielded a half-life at 1 µM greater than 30 min. For the same compound, the figures for the IC50 in data set [1] and in [3] were 340 nM and 11 nM, respectively.
`CNCCCC1Cc2cc(F)ccc2N(c2c(F)cccc2F)S1(=O)=O.Cl` (single isomer, unassigned; enantiomer II) had a half-life at 1 µM in data set [5] greater than 30 min. The IC50 came out at 600 nM in data set [1] and 27 nM in data set [3].
As to `CNCCCC1Cc2cc(F)ccc2N(c2ccccc2F)S1(=O)=O` (single isomer, unassigned; enantiomer II), the inhibition in data set [9] was found to be 50%.
With `CNCCCC1Cc2ccccc2N(c2ccccc2F)S1(=O)=O` (single isomer, unassigned; enantiomer II), the inhibition in [6] worked out at 74%; in data set [9], 23%.

For orientation: IC50 means the concentration that gives 50% inhibition. As usually defined, the inhibition is the drop in the measured response relative to a control, in per cent. The half-life is the time needed for the level to fall by half in the phase considered. The low end stands for rapid decline, the high end for slow decline.
